The subject of assay [1] is subject with PCS. Put plainly: Cancellation test, Wechsler Adult Intelligence Scale 4th edition. The format is in vivo, human. As to the method: (§1) A single subject, prospective, double blind, placebo controlled trial of 4AP was then conducted in this individual. IRB approvals were obtained from all participating institutions and Subject gave written informed consent for all parts of the study. After a 4-week medication washout period, the Subject was randomly assigned a week's course of placebo, followed by a weeklong medication washout period, followed by another week on 4-AP (10 mg twice daily). Based on the medication half-life, a one week washout period was presumed to be sufficient. Subject and assessors were blinded to treatment allocation.
(§2) Measurements conducted at identical times at baseline and on each of the subsequent 3 weeks of the study included: • Balance and mobility assessed by Hi-Mat test (Arch. Phys. Med. Rehabil. 2006, 87(3), 437-442; hereby incorporated by reference in its entirety). • Subjective symptom assessment using the Rivermead Post-Concussion Questionnaire (Clin. Rehabil. 2005, 19(8), 878-887; hereby incorporated by reference in its entirety). • Neuropsychological assessment, consisting of the digit span and cancellation tests from the Wechsler Adult Intelligence Scale, 4th edition (Coalson, D. L., Engi-Raiford, S. Wechsler Adult Intelligence Scale, 4th Ed., in Technical and Interpretive Manual, 4th Ed., San Antonio: Pearson (2008); hereby incorporated by reference in its entirety), the California Verbal Learning Test II (CVLT) (Delis, D. C., Kramer, J. H., Kaplan, E., Ober, B. A. in CVLT-II Manual, San Antonio: The Psychological Corporation (2000); hereby incorporated by reference in its entirety), the Verbal Fluency Test (Connors Continuous Performance Test Computer II Program Version 5 Users Manual, Toronto: Multi-Health Systems, Inc. (2002); hereby incorporated by reference in its entirety), and the Connors Continuous Performance Test (J. Nervous Ment. Dis. 1985, 173(6), 353-357; hereby incorporated by reference in its entirety). • Videonystagmography (VNG) and rotary chair (RC) vestibular testing […]

Assay [2] has as its system subject with PCS. Description: California Verbal Learning Test II (CVLT). The format is in vivo, human. On the procedure:
as §1, §2

Setting [3] is: session 5 1st Open: open-label 4AP 10 mg twice daily, 5 weeks after formal study.
The mark [4] stands for this setting: session 6 2nd Open: open-label 4AP 10 mg twice daily, 9 weeks after formal study.

Each structure is given as a SMILES string.

For `Nc1ccncc1` [4-AP, 4-Amino pyridine], the Cancellation task percentile with subject with PCS [1] (session 4 Active: blinded, one week on 4-AP 10 mg twice daily, baseline 37, placebo 37, washout 37) came out at 37 percentile; in the assay on subject with PCS [1] (setting [3]), 75 percentile; in the assay on subject with PCS [1] (setting [4]) it was 84 percentile. The “CVLT-II immediate, percentile” value in the assay with subject with PCS [2] (session 4 Active: blinded, one week on 4-AP 10 mg twice daily, baseline 27, placebo 21, washout 65) turned out to be 18 percentile; with subject with PCS [2] (setting [3]), 69 percentile; in the assay on subject with PCS [2] (setting [4]) it was 93 percentile.

For the origin of these results see patent US20130184316A1, “METHODS FOR DIAGNOSING AND TREATING CONCUSSIVE DISORDERS” (priority 2010, published 2013).
